Experimental data taken from ChEMBL document CHEMBL1201862, “PubChem BioAssay data set” (2004).
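The compound was tested at five concentrations on cells cultured in 96-well plates, with a 48-hour exposure period. The concentration for 50% growth inhibition is given as GI50.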 The source made the active and inactive calls. Cut-off read from the data, not from the text of the source: active = GI50 up to about 1.1 µM and inactive = higher.

Tests used:
Test in all cases: growth of human tumour cells (NCI), 48 h
[1] = tested on: A498
[2] = tested on: CAKI-1
[3] = tested on: DU-145
[4] = tested on: HCC 2998
[5] = tested on: HCT-15
[6] = tested on: HOP-92
[7] = tested on: HT-29
[8] = tested on: K562
[9] = tested on: LOX IMVI
[10] = tested on: MCF7
[11] = tested on: MDA-MB-231
[12] = tested on: NCI-H226
[13] = tested on: OVCAR-3
[14] = tested on: RPMI-8226
[15] = tested on: RXF 393
[16] = tested on: SK-MEL-28
[17] = tested on: SK-MEL-5
[18] = tested on: SN12C
[19] = tested on: SNB-75
[20] = tested on: U-251

Row | SMILES | GI50 [1] | GI50 [2] | GI50 [3] | GI50 [4] | GI50 [5] | GI50 [6] | GI50 [7] | GI50 [8] | GI50 [9] | GI50 [10] | GI50 [11] | GI50 [12] | GI50 [13] | GI50 [14] | GI50 [15] | GI50 [16] | GI50 [17] | GI50 [18] | GI50 [19] | GI50 [20]
1 | COC1/C=C/C(C)C(C(C)C(OC)C(C)CCC(=O)C(C)C(CCC(=O)O)OC)OC(=O)/C=C/C=C(\C)CC(OC)CC2=CC(=O)O[C@@H](C(C)C(OC)CC(OC)/C=C/C(C)C(OC)C1)[C@H]2O (stereo not given in full) | 0.123 µM (active) | 0.269 µM (active) | 1.71 µM (inactive) | 0.353 µM (active) | 0.74 µM | 0.372 µM (active) | 0.284 µM (active) | 1.92 µM (inactive) | 0.226 µM (active) | 1.04 µM (active) | 0.483 µM (active) | 0.695 µM (active) | 0.646 µM (active) | 0.242 µM (active) | 0.583 µM (active) | 0.792 µM (active) | 0.296 µM (active) | 0.733 µM (active) | 0.16 µM (active) | 0.249 µM (active)
2 | CCCCCCCCCc1cc(O)c(O)cc1CCCCCCCCC | > 10 µM (inactive) | > 10 µM (inactive) | > 10 µM (inactive) | > 10 µM (inactive) | > 10 µM | > 10 µM (inactive) | > 10 µM (inactive) | > 10 µM (inactive) | > 10 µM (inactive) | > 10 µM (inactive) | > 10 µM (inactive) | > 10 µM (inactive) | > 10 µM (inactive) | > 10 µM (inactive) | > 10 µM (inactive) | > 10 µM (inactive) | > 10 µM (inactive) | > 10 µM (inactive) | > 10 µM (inactive) | > 10 µM (inactive)
3 | O=C(N[C@@H](Cc1ccccc1)B(O)O)[C@H](Cc1cccc2ccccc12)NC(=O)N1CCOCC1 | 0.00261 µM (active) | 0.00555 µM (active) | 0.00627 µM (active) | 0.00182 µM (active) | 0.155 µM | 0.00233 µM (active) | 0.00239 µM (active) | 0.00371 µM (active) | 0.00124 µM (active) | 0.000476 µM (active) | 0.00267 µM (active) | 0.00029 µM (active) | 0.000891 µM (active) | 0.000412 µM (active) | 0.00167 µM (active) | 0.00106 µM (active) | 0.00154 µM (active) | 0.00371 µM (active) | < 0.01 µM (active) | 0.00423 µM (active)
4 | O=C1CC(O)c2cscc21 (stereo not given) | > 100 µM (inactive) | > 100 µM (inactive) | > 100 µM (inactive) | 32.2 µM (inactive) | > 100 µM | > 100 µM (inactive) | > 100 µM (inactive) | 38.1 µM (inactive) | 36.5 µM (inactive) | > 100 µM (inactive) | > 100 µM (inactive) | > 100 µM (inactive) | > 100 µM (inactive) | 35.3 µM (inactive) | > 100 µM (inactive) | > 100 µM (inactive) | > 100 µM (inactive) | > 100 µM (inactive) | > 100 µM (inactive) | > 100 µM (inactive)
5 | [O-]/[N+](=C\c1ccccc1OC(=S)S)c1ccc(Cl)cc1 | 59.8 µM (inactive) | 13.6 µM (inactive) | 42.9 µM (inactive) | 45.3 µM (inactive) | 15.7 µM | 2.87 µM (inactive) | 22.4 µM (inactive) | 10.6 µM (inactive) | 14.9 µM (inactive) | 13 µM (inactive) | 13.7 µM (inactive) | 48.4 µM (inactive) | 18.7 µM (inactive) | 5.7 µM (inactive) | 45.7 µM (inactive) | 3.57 µM (inactive) | 0.224 µM (active) | 24.8 µM (inactive) | > 100 µM (inactive) | 19.8 µM (inactive)
6 | CCOC(=O)c1nc2ccccc2nc1Nc1ccc(F)cc1 | 20.9 µM (inactive) | 39.5 µM (inactive) | 42.2 µM (inactive) | > 100 µM (inactive) | 57.5 µM | 15.7 µM (inactive) | > 100 µM (inactive) | > 100 µM (inactive) | 79.4 µM (inactive) | > 60.8 µM (inactive) | 8.13 µM (inactive) | 17.9 µM (inactive) | > 72.4 µM (inactive) | > 100 µM (inactive) | 11.9 µM (inactive) | > 100 µM (inactive) | > 100 µM (inactive) | 40.6 µM (inactive) | 3.52 µM (inactive) | 18.8 µM (inactive)
7 | COc1ccc2[nH]c3c(C)c4c(c(C)c3c2c1)CN(C)C=C4 | 1.36 µM (inactive) | 9.23 µM (inactive) | 5.37 µM (inactive) | 2.71 µM (inactive) | 23.4 µM | 2.79 µM (inactive) | 3.93 µM (inactive) | 3.44 µM (inactive) | 9.77 µM (inactive) | 4.53 µM (inactive) | 12.1 µM (inactive) | 0.267 µM (active) | 4.53 µM (inactive) | 7.24 µM (inactive) | 7.21 µM (inactive) | 3.44 µM (inactive) | 1.98 µM (inactive) | 0.164 µM (active) | 0.226 µM (active) | 0.219 µM (active)
